Paper PMC12196476, “New Nitrogen-, Oxygen-, and Sulfur-Containing Heterocyclic Compounds as Anti-Colon Cancer Agents: Synthesis, Multitargeted Evaluations, Molecular Docking Simulations and ADMET Predictions” (Pharmaceuticals, 2025)

Key:
[1] = target: recombinant human LDHA protein (Homo sapiens, UniProt P00338); test: In vitro LDHA inhibitory assay (NADH consumption); assay type: biochemical
[2] = test system: Bax, Bcl-2 and Casp-3 genes expression in HCT-116 cells; test: qRT-PCR of Bax, Bcl-2 and Casp-3 gene expression, HCT-116; assay type: cell-based, human; conditions: 30 µg/mL, 48 h
Experimental: To investigate molecular events downstream of ROS generation, we evaluated mRNA expression levels of key regulators of mitochondrial apoptosis—Bax and Bcl-2—using qRT-PCR. […] As a result, the Bax/Bcl-2 ratios were calculated to be 12.63 in LoVo cells and 8.71 in HCT-116 cells, reflecting a pronounced pro-apoptotic shift. This alteration in the Bax/Bcl-2 ratio strongly supports the activation of the mitochondrial apoptotic pathway.
To confirm activation of the execution phase of apoptosis, Casp-3 mRNA levels were evaluated by qRT-PCR.
The expression levels of these genes were determined using a quantitative real-time PCR technique. […]
S3.2.9. Quantification of the Expression Levels of Bax, Bcl-2 and Caspase-3 Genes
Human colon cancer cell lines (HCT-116 and LoVo) were cultured for 24 h in a 25 mL flask at
a density of 1 * 10^6 cells/flask as described in section S3.2.4. Cells were treated with 30 µg/mL
of compound 3d in 2 mL of fresh medium containing 1% FBS, or with 0.25 % DMSO as a
negative control, for 48 h. Afterwards, cells were washed with ice-cold phosphate-buffered
saline (PBS) and adherent cells were detached using trypsin solution.
Table S7 lists primers amplifying 100-200 bp of Bax, Bcl-2 and Caspase-3 genes. These primers
were designed using primer blast software (https://www.ncbi.nlm.nih.gov/tools/primer-
Table S7. Primer sequences for Bax, Bcl-2, Caspase-3, and GAPDH (control)
Gene Primer sequence (5’ to 3’)
Bcl-2 F 5’-[…] -3’,
Caspase 3 F 5’- […]-3’,
GAPDH F 5’- […]-3’
• Reverse-Transcription PCR (RT-PCR)
The total RNA was extracted from untreated and treated cells using the RNeasy Mini Kit
(Qiagen, DE). A Nanodrop 8000 spectrophotometer (Thermo Fisher Scientific, USA) was
used to check the RNA purity and quality. The Hyperscript Kit (GeneAll, KR) and random
hexamers (GeneAll, KR) were used as described in the manufacturer’s protocol to reverse-
transcript 1µg of RNA from each sample into cDNA.
• Quantitative real-time PCR
The mRNA expression of Bax, Bcl-2, and Caspase-3 were measured using QuantStudio
7Flex Detection System (Applied Biosystems, USA). The iScript One-Step RT-PCR Kit with
SYBR Green (Cat no: 170-8892; Bio-Rad, CA, USA) was used to carry out the reactions for
the synthesis of cDNA. Each cDNA sample (5 µl) was added in a 20 µL PCR mixture

HCT-116 cells = test: Annexin V-FITC/PI apoptosis assay, HCT-116; assay type: cell-based, human; conditions: 30 µg/mL, 48 h
Experimental: Translocation of phosphatidylserine (PS) residues on the cell surface is an early apoptosis indicator, detectable through flow cytometric analysis and using double staining with propidium iodide (PI) dye and fluorescein isothiocyanate (FITC)-conjugated Annexin V (Annexin V-FITC). […]
μg/mL for 48 h. […]
S3.2.6. Annexin-V-FITC assay. […]
treatment with compound 3d. HCT-116 and LoVo cells were treated with vehicle (DMSO) and 3d […]
in Annexin-V binding buffer (BioVision Research Products, USA). The cells were then stained with Annexin V-FITC and propidium iodide (PI). Using the FITC signal detector (usually FL1) for […]
of stained cancerous cells were determined. […]

[3] = relative to untreated controls, normalized to GAPDH

SMILES: COc1cc(/C=N/c2ncnc3sc4c(c23)CCCC4)cc(OC)c1OC [Compound 3d, (E)-N-(5,6,7,8-Tetrahydrobenzo[4,5]thieno[2,3-d]pyrimidin-4-yl)-1-(3,4,5-trimethoxyphenyl)methanimine]
- inhibition at 100 µg/mL ([1]; 100 µg/mL, three replicates, read-out: Mean Inhibition Percent ± SD, LDHA): 85.9 ± 2.97%
- IC50 ([1]; three independent experiments, read-out: Mean IC50 µM ± SD, LDHA): 149 ± 7.93 µM
- Bax/Bcl-2 ratio, HCT-116 cells [2]: 8.71
- Bax mRNA expression, fold of control (HCT-116) [2, 3]: 3.57 ± 0.18 fold
- Bcl-2 mRNA expression, fold of control (HCT-116) [2, 3]: 0.41 ± 0.04 fold
- Casp-3 mRNA expression, fold of control (HCT-116) [2, 3]: 4.50 ± 0.40 fold
- Necrotic population (Annexin-V−/PI+), HCT-116 (HCT-116 cells; Figure 3D plot): 1.53%
- Late apoptotic cells (both Annexin-V and PI positive), HCT-116 (HCT-116 cells; Figure 3D plot, control 0.15%): 3.63%
- Early apoptotic cells (Annexin V-FITC positive and PI negative), HCT-116 (HCT-116 cells; Figure 3D plot, control 0.46%): 19.02%
- % of cell population, Mean necrosis (HCT-116) (HCT-116 cells; mean of two independent experiments (Figure 3E)): 1.63%
- % of cell population, Mean total death (HCT-116) (HCT-116 cells; mean of two independent experiments (Figure 3E), text calls it total apoptosis): 25.11%
